Laboratory results published in publication PMC2364737, “Phase I and pharmacokinetic (PK) study of MAG-CPT (PNU 166148): a polymeric derivative of camptothecin (CPT)” (British Journal of Cancer, 2004).

Assays:
patients [1] = conditions: cited from earlier work
patients [2] = conditions: first 3 days of a 28-day cycle; ref Schoemaker et al, 2002; cited from earlier work
[3] = system: advanced solid malignancy
Source text: (§1) During the course of the study patients were reviewed in the clinic every week with toxicity assessment, physical examination, FBC, and serum chemistry. Tumour assessment by imaging was repeated every three cycles. Chest X-ray and ECG were repeated at the end of study.

[4] = system: colon, stomach, pancreas, ovary, breast, lung, and melanoma xenograft models; conditions: preclinical studies; cited from earlier work
[5] = system: patients with advanced solid malignancies; test: Phase I dose escalation study: safety, dose-limiting toxicity and MTD; assay type: in vivo, human
Procedure: This was an open-label nonrandomised dose escalation study, conducted in sequential cohorts of patients from two institutions, Aberdeen Royal Infirmary, Aberdeen, and the Beatson Oncology Centre, Glasgow. It was performed under the auspices of the Cancer Research Campaign, London, with sponsorship by Pharmacia and Upjohn, Milan.
All patients had histologically or cytologically proven advanced solid malignancy that was refractory to conventional therapy. […] All patients gave written informed consent according to local Ethics Committee guidelines.
All doses of the investigational agent are expressed as mg of CPT equivalent. The drug was stored at room temperature. The vials were reconstituted with 10 ml normal saline and the dose to be administered was made up in 100 ml saline in a PVC infusion bag.
Thereafter, dose escalation was to continue according to a modified Fibonacci series. The dose escalation scheme could, however, be modified if considered appropriate based on acquired clinical and pharmacokinetic data. The MTD was defined as the highest dose at which at least three of six patients had dose-limiting toxicity (DLT).
Patients were to be retreated at 28-day intervals for up to six cycles. […] Treatment could be delayed for up to 2 weeks to allow resolution of toxicity.
as §1

In the case of CC[C@@]1(O)C(=O)OCc2c1cc1n(c2=O)Cc2cc3ccccc3nc2-1 [Camptothecin], the “responses in early clinical trials” value (patients [1]; colorectal cancer, small bowel carcinoma, and melanoma) is given as “responses to CPT were observed” and the “unpredictable and severe toxicity in early clinical trials” value (patients [1]; ref Gottlieb et al, 1970, Muggia et al, 1972) is given as “myelosuppression, gastrointestinal toxicity, and haemorrhagic cystitis”.

For “copolymer of N-(hydroxypropyl) methacrylamide, (20-O-(N-methacryloyl-glycyl-aminohexanoyl-glycyl)) camptothecin and N-(2-hydroxypropyl) methacryloyl glycinamide [MAG-CPT]”, the antitumour activity (patients [2]) is given as “no evidence of antitumour activity”, the “antitumour effect in a patient with renal carcinoma” value ([3]; 60 mg m^−2, patient had progressive disease with brain metastases) is given as “regression of cutaneous metastases was observed” and the objective antitumour responses ([3]; all dose levels, 23 patients) is given as “No objective antitumour responses were seen”. The “activity in xenograft models” value [4] was “active”, the “patients with grade 2 dysuria and haematuria during cycle 2” value ([5]; 200 mg m^−2) was “one of the eight patients” and the “dose recommended for phase II / further clinical study” value ([5]; 30-min infusion once every 4 weeks, dose as mg equivalent camptothecin) was 200 mg m^−2. For the same molecule, the “nausea and vomiting grade 1” value ([5]; dose levels 30–120 mg m^−2) was “observed sporadically”.
